From ChEMBL document CHEMBL1649191, “Genetic organization of transposase regions surrounding blaKPC carbapenemase genes on plasmids from Klebsiella strains isolated in a New York City hospital” (2009)
≈ marks a conversion by molar mass, not a printed value.

Tests used:
Type in all cases: functional
[1] = tested on: Klebsiella pneumoniae; experiment: Antimicrobial activity against blaKPC-positive Klebsiella pneumoniae S2 by broth microdilution method
[2] = tested on: Klebsiella pneumoniae; experiment: Antimicrobial activity against blaKPC-positive Klebsiella pneumoniae S1 by broth microdilution method
[3] = tested on: Klebsiella pneumoniae; experiment: Antimicrobial activity against blaKPC-positive Klebsiella pneumoniae S11 by broth microdilution method
[4] = tested on: Klebsiella pneumoniae; experiment: Antimicrobial activity against blaKPC-positive Klebsiella pneumoniae S10 by broth microdilution method
[5] = tested on: Klebsiella pneumoniae; experiment: Antimicrobial activity against blaKPC-positive Klebsiella pneumoniae S4 by broth microdilution method
[6] = tested on: Klebsiella pneumoniae; experiment: Antimicrobial activity against blaKPC-positive Klebsiella pneumoniae S7 by broth microdilution method
[7] = tested on: Klebsiella pneumoniae; experiment: Antimicrobial activity against blaKPC-positive Klebsiella pneumoniae S3 by broth microdilution method
[8] = tested on: Klebsiella pneumoniae; experiment: Antimicrobial activity against blaKPC-positive Klebsiella pneumoniae S14 by broth microdilution method
[9] = tested on: Klebsiella pneumoniae; experiment: Antimicrobial activity against blaKPC-positive Klebsiella pneumoniae S5 by broth microdilution method
[10] = tested on: Klebsiella oxytoca; experiment: Antimicrobial activity against blaKPC-positive Klebsiella oxytoca S13 by broth microdilution method
[11] = tested on: Klebsiella pneumoniae; experiment: Antimicrobial activity against blaKPC-positive Klebsiella pneumoniae S8 by broth microdilution method
[12] = tested on: Klebsiella pneumoniae; experiment: Antimicrobial activity against blaKPC-positive Klebsiella pneumoniae S6 by broth microdilution method
[13] = tested on: Klebsiella pneumoniae; experiment: Antimicrobial activity against blaKPC-positive Klebsiella pneumoniae S9 by broth microdilution method
[14] = tested on: Klebsiella pneumoniae; experiment: Antimicrobial activity against blaKPC-positive Klebsiella pneumoniae S15 by broth microdilution method
[15] = tested on: Klebsiella pneumoniae; experiment: Antimicrobial activity against blaKPC-positive Klebsiella pneumoniae S12 by broth microdilution method

C[C@@H](O)[C@H]1C(=O)N2C(C(=O)O)=C(SCCNC=N)C[C@H]12 [IMIPENEM ANHYDROUS]
MIC [1]: 32 mg/L (≈ 107 µM)
MIC [2]: 32 mg/L (≈ 107 µM)
MIC [3]: 32 mg/L (≈ 107 µM)
MIC [4]: 64 mg/L (≈ 214 µM)
MIC [5]: 8 mg/L (≈ 26.7 µM)
MIC [6]: 32 mg/L (≈ 107 µM)
MIC [7]: 32 mg/L (≈ 107 µM)
MIC [8]: > 64 mg/L
MIC [9]: 64 mg/L (≈ 214 µM)
MIC [10]: 32 mg/L (≈ 107 µM)
MIC [11]: 64 mg/L (≈ 214 µM)
MIC [12]: 32 mg/L (≈ 107 µM)
MIC [13]: > 64 mg/L
MIC [14]: 64 mg/L (≈ 214 µM)
MIC [15]: 32 mg/L (≈ 107 µM)

C[C@H]1[C@H](NC(=O)/C(=N\OC(C)(C)C(=O)O)c2csc(N)n2)C(=O)N1S(=O)(=O)O [AZTREONAM]
MIC [1]: > 64 mg/L
MIC [2]: > 64 mg/L
MIC [3]: > 64 mg/L
MIC [4]: > 64 mg/L
MIC [5]: > 64 mg/L
MIC [6]: > 64 mg/L
MIC [7]: > 64 mg/L
MIC [8]: > 64 mg/L
MIC [9]: > 64 mg/L
MIC [10]: > 64 mg/L
MIC [11]: > 64 mg/L
MIC [12]: > 64 mg/L
MIC [13]: > 64 mg/L
MIC [14]: > 64 mg/L
MIC [15]: > 64 mg/L

C[C@@H](O)[C@H]1C(=O)N2C(C(=O)O)=C(S[C@@H]3CN[C@H](C(=O)N(C)C)C3)[C@H](C)[C@H]12 [MEROPENEM]
MIC [1]: 64 mg/L (≈ 167 µM)
MIC [2]: > 64 mg/L
MIC [3]: 32 mg/L (≈ 83.4 µM)
MIC [4]: 64 mg/L (≈ 167 µM)
MIC [6]: 32 mg/L (≈ 83.4 µM)
MIC [7]: 64 mg/L (≈ 167 µM)
MIC [8]: 64 mg/L (≈ 167 µM)
MIC [9]: 64 mg/L (≈ 167 µM)
MIC [10]: 32 mg/L (≈ 83.4 µM)
MIC [11]: 64 mg/L (≈ 167 µM)
MIC [12]: 64 mg/L (≈ 167 µM)
MIC [13]: > 64 mg/L
MIC [14]: 64 mg/L (≈ 167 µM)
MIC [15]: 32 mg/L (≈ 83.4 µM)

GENTAMICIN
MIC [1]: 2 mg/L
MIC [4]: 8 mg/L
MIC [6]: 8 mg/L
MIC [7]: 2 mg/L
MIC [8]: 32 mg/L
MIC [9]: 1 mg/L
MIC [10]: 8 mg/L
MIC [11]: 8 mg/L
MIC [12]: 1 mg/L
MIC [13]: 1 mg/L
MIC [14]: 2 mg/L
MIC [15]: 16 mg/L

NCC[C@H](O)C(=O)N[C@@H]1C[C@H](N)[C@@H](O[C@H]2O[C@H](CN)[C@@H](O)[C@H](O)[C@H]2O)[C@H](O)[C@H]1O[C@H]1O[C@H](CO)[C@@H](O)[C@H](N)[C@H]1O [AMIKACIN]
MIC [1]: 32 mg/L (≈ 54.6 µM)
MIC [2]: 16 mg/L (≈ 27.3 µM)
MIC [3]: 2 mg/L (≈ 3.42 µM)
MIC [4]: > 64 mg/L
MIC [5]: 1 mg/L (≈ 1.71 µM)
MIC [6]: 1 mg/L (≈ 1.71 µM)
MIC [7]: 32 mg/L (≈ 54.6 µM)
MIC [8]: 32 mg/L (≈ 54.6 µM)
MIC [9]: 64 mg/L (≈ 109 µM)
MIC [10]: 4 mg/L (≈ 6.83 µM)
MIC [11]: > 64 mg/L
MIC [12]: 32 mg/L (≈ 54.6 µM)
MIC [13]: 16 mg/L (≈ 27.3 µM)
MIC [14]: 32 mg/L (≈ 54.6 µM)
MIC [15]: 16 mg/L (≈ 27.3 µM)

O=C(O)c1cn(C2CC2)c2cc(N3CCNCC3)c(F)cc2c1=O [CIPROFLOXACIN]
MIC [1]: > 64 mg/L
MIC [2]: > 64 mg/L
MIC [3]: 1 mg/L (≈ 3.02 µM)
MIC [4]: > 64 mg/L
MIC [5]: 0.06 mg/L (≈ 0.181 µM)
MIC [6]: 32 mg/L (≈ 96.6 µM)
MIC [7]: > 64 mg/L
MIC [8]: 64 mg/L (≈ 193 µM)
MIC [9]: > 64 mg/L
MIC [10]: 0.06 mg/L (≈ 0.181 µM)
MIC [11]: > 64 mg/L
MIC [12]: > 64 mg/L
MIC [13]: > 64 mg/L
MIC [14]: > 64 mg/L
MIC [15]: < 0.06 mg/L

CO/N=C(\C(=O)N[C@@H]1C(=O)N2C(C(=O)[O-])=C(C[N+]3(C)CCCC3)CS[C@H]12)c1csc(N)n1
MIC [1]: > 64 mg/L
MIC [2]: 32 mg/L (≈ 66.6 µM)
MIC [3]: > 64 mg/L
MIC [4]: > 64 mg/L
MIC [5]: 64 mg/L (≈ 133 µM)
MIC [6]: > 64 mg/L
MIC [7]: > 64 mg/L
MIC [8]: > 64 mg/L
MIC [9]: > 64 mg/L
MIC [10]: > 64 mg/L
MIC [11]: 64 mg/L (≈ 133 µM)
MIC [12]: > 64 mg/L
MIC [13]: > 64 mg/L
MIC [14]: > 64 mg/L
MIC [15]: > 64 mg/L

CN(C)c1cc(NC(=O)CNC(C)(C)C)c(O)c2c1C[C@H]1C[C@H]3[C@H](N(C)C)C(O)=C(C(N)=O)C(=O)[C@@]3(O)C(O)=C1C2=O [TIGECYCLINE]
MIC [1]: 1 mg/L (≈ 1.71 µM)
MIC [2]: 1 mg/L (≈ 1.71 µM)
MIC [3]: 0.25 mg/L (≈ 0.427 µM)
MIC [4]: 1 mg/L (≈ 1.71 µM)
MIC [5]: 0.5 mg/L (≈ 0.854 µM)
MIC [6]: 0.5 mg/L (≈ 0.854 µM)
MIC [7]: 1 mg/L (≈ 1.71 µM)
MIC [8]: 0.25 mg/L (≈ 0.427 µM)
MIC [9]: 1 mg/L (≈ 1.71 µM)
MIC [10]: 0.25 mg/L (≈ 0.427 µM)
MIC [11]: 2 mg/L (≈ 3.41 µM)
MIC [12]: 4 mg/L (≈ 6.83 µM)
MIC [13]: 2 mg/L (≈ 3.41 µM)
MIC [14]: 1 mg/L (≈ 1.71 µM)
MIC [15]: 0.25 mg/L (≈ 0.427 µM)

CC(C)(O/N=C(\C(=O)N[C@@H]1C(=O)N2C(C(=O)[O-])=C(C[n+]3ccccc3)CS[C@H]12)c1csc(N)n1)C(=O)O [CEFTAZIDIME]
MIC [1]: > 64 mg/L
MIC [2]: > 64 mg/L
MIC [3]: 16 mg/L (≈ 29.3 µM)
MIC [4]: > 64 mg/L
MIC [5]: 8 mg/L (≈ 14.6 µM)
MIC [6]: 32 mg/L (≈ 58.5 µM)
MIC [7]: 64 mg/L (≈ 117 µM)
MIC [8]: > 64 mg/L
MIC [9]: > 64 mg/L
MIC [10]: > 64 mg/L
MIC [11]: > 64 mg/L
MIC [12]: > 64 mg/L
MIC [13]: > 64 mg/L
MIC [14]: > 64 mg/L
MIC [15]: > 64 mg/L

POLYMYXIN B
MIC [1]: 8 mg/L
MIC [2]: 2 mg/L
MIC [3]: 16 mg/L
MIC [4]: 4 mg/L
MIC [5]: 8 mg/L
MIC [6]: 16 mg/L
MIC [7]: 8 mg/L
MIC [8]: 1 mg/L
MIC [9]: 4 mg/L
MIC [10]: 4 mg/L
MIC [11]: 8 mg/L
MIC [12]: 16 mg/L
MIC [13]: 4 mg/L
MIC [14]: 4 mg/L
MIC [15]: 2 mg/L
